Test results as given in ChEMBL document CHEMBL6078677, “Discovery and optimization of tetrahydroacridine derivatives as a novel class of antibiotics against multidrug-resistant Gram-positive pathogens by targeting type I signal peptidase and disrupting bacterial membrane” (Eur J Med Chem, 2025).
In brackets after ≈: the same amount, converted by molar mass. Numbered stars: 1 amine (or outer) side, 2 acyl side, 3 side chain; on linkers, the order of the positions; unused ones are H or OH. Bridge positions count the residues as written; N and C are the ends. Square brackets hold non-standard residues; d marks the D form. Side chains are listed from the residue outwards. Peptide text beside a SMILES is read from it. * marks the point of attachment. X1 = C[C@@H](O)[C@H](CN([C@@H](CCN)C(=O)[*:2])[*:1])N[*:3]; Octanoyl(6-Me) = CCC(C)CCCCC(=O)*; Dab = NCC[C@H](N)C(=O)O

How the values were obtained:
Klebsiella pneumoniae = assay: Antimicrobial activity against Klebsiella pneumoniae 9-1 assessed as inhibition of visible growth of bacteria incubated for 20 hrs by broth microdilution method; assay type: functional
Enterococcus faecalis [1] = assay: Antimicrobial activity against Enterococcus faecalis ES01 harboring erythromycin-resistance rRNA methylase B and vanB-type vancomycin-resistance locus assessed as inhibition of visible growth of bacteria incubated for 20 hrs by broth microdilution method; assay type: functional
Pseudomonas aeruginosa [2] = assay: Antimicrobial activity against Pseudomonas aeruginosa PA01 assessed as inhibition of visible growth of bacteria incubated for 20 hrs by broth microdilution method; assay type: functional
Streptococcus agalactiae = assay: Antimicrobial activity against Streptococcus agalactiae DL03 harboring erythromycin-resistance rRNA methylase B assessed as inhibition of visible growth of bacteria incubated for 20 hrs by broth microdilution method; assay type: functional
Enterococcus faecium [3] = assay: Antimicrobial activity against Enterococcus faecium HFY01 assessed as inhibition of visible growth of bacteria incubated for 20 hrs by broth microdilution method; assay type: functional
Staphylococcus aureus [4] = assay: microbe, parasite or virus in culture; assay type: functional; conditions: M92-1, time 20 hrs
Description: Antimicrobial activity against Staphylococcus aureus M92-1 harboring erythromycin resistance rRNA methylase B, tetracycline efflux protein L and oxazolidinone-phenicol transferable resistance gene assessed as inhibition of visible growth of bacteria incubated for 20 hrs by broth microdilution method

Enterococcus faecalis [5] = assay: Antimicrobial activity against Enterococcus faecalis J2 harboring erythromycin-resistance rRNA methylase B and oxazolidinone phenicol transferable resistance gene assessed as inhibition of visible growth of bacteria incubated for 20 hrs by broth microdilution method; assay type: functional
Staphylococcus aureus [6] = assay: Antimicrobial activity against Staphylococcus aureus YZSA-24 harboring erythromycin resistance rRNA methylase C and methicillin resistance gene resistance locus assessed as inhibition of visible growth of bacteria incubated for 20 hrs by broth microdilution method; assay type: functional
Enterococcus faecium [7] = assay: Antimicrobial activity against Enterococcus faecium MC38 harboring erythromycin resistance rRNA methylase B and oxazolidinone-phenicol transferable resistance gene assessed as inhibition of visible growth of bacteria incubated for 20 hrs by broth microdilution method; assay type: functional
Staphylococcus aureus [8] = assay: Antimicrobial activity against Staphylococcus aureus YZSA-21 harboring erythromycin resistance rRNA methylase C assessed as inhibition of visible growth of bacteria incubated for 20 hrs by broth microdilution method; assay type: functional
Staphylococcus aureus [9] = assay: microbe, parasite or virus in culture; assay type: functional; conditions: M147-2, time 20 hrs
Description: Antimicrobial activity against Staphylococcus aureus M147-2 harboring erythromycin resistance rRNA methylase B, tetracycline efflux protein L and chloramphenicol-florfenicol resistance methylase assessed as inhibition of visible growth of bacteria incubated for 20 hrs by broth microdilution method

Enterococcus faecalis [10] = assay: microbe, parasite or virus in culture; assay type: functional; conditions: SF23-1, time 20 hrs
Description: Antimicrobial activity against Enterococcus faecalis SF23-1 harboring erythromycin-resistance rRNA methylase B, tetracycline efflux protein L and chloramphenicol-florfenicol resistance methylase assessed as inhibition of visible growth of bacteria incubated for 20 hrs by broth microdilution method

Acinetobacter baumannii [11] = assay: Antimicrobial activity against Acinetobacter baumannii 7979 assessed as inhibition of visible growth of bacteria incubated for 20 hrs by broth microdilution method; assay type: functional
Acinetobacter baumannii [12] = assay: Antimicrobial activity against Acinetobacter baumannii AB11 assessed as inhibition of visible growth of bacteria incubated for 20 hrs by broth microdilution method; assay type: functional
Enterococcus faecalis [13] = assay: Antimicrobial activity against Enterococcus faecalis JH2-2 assessed as inhibition of visible growth of bacteria incubated for 20 hrs by broth microdilution method; assay type: functional
Salmonella enteritidis = assay: Antimicrobial activity against Salmonella enteritis S1 assessed as inhibition of visible growth of bacteria incubated for 20 hrs by broth microdilution method; assay type: functional, Salmonella enterica subsp. enterica serovar Enteritidis; conditions: Salmonella enterica
Enterococcus faecium [14] = assay: Antimicrobial activity against Enterococcus faecium QF31 harboring erythromycin resistance rRNA methylase B and chloramphenicol-florfenicol resistance methylase assessed as inhibition of visible growth of bacteria incubated for 20 hrs by broth microdilution method; assay type: functional
Staphylococcus aureus [15] = assay: Antimicrobial activity against Staphylococcus aureus YZSA-15 harboring erythromycin resistance rRNA methylase C and vancomycin resistance locus assessed as inhibition of visible growth of bacteria incubated for 20 hrs by broth microdilution method; assay type: functional
Staphylococcus aureus [16] = assay: Antimicrobial activity against Staphylococcus aureus ATCC 29213 assessed as inhibition of visible growth of bacteria incubated for 20 hrs by broth microdilution method; assay type: functional
Streptococcus suis [17] = assay: microbe, parasite or virus in culture; assay type: functional; conditions: SH0918, time 20 hrs
Description: Antimicrobial activity against Streptococcus suis SH0918 harboring erythromycin-resistance rRNA methylase B, tetracycline efflux protein O and oxazolidinone phenicol transferable resistance gene assessed as inhibition of visible growth of bacteria incubated for 20 hrs by broth microdilution method

Streptococcus suis [18] = assay: Antimicrobial activity against Streptococcus suis P1/7 assessed as inhibition of visible growth of bacteria incubated for 20 hrs by broth microdilution method; assay type: functional
Streptococcus pyogenes = assay: Antimicrobial activity against Streptococcus pyogenes DL02 harboring erythromycin-resistance rRNA methylase B assessed as inhibition of visible growth of bacteria incubated for 20 hrs by broth microdilution method; assay type: functional
Pseudomonas aeruginosa [19] = assay: Antimicrobial activity against Pseudomonas aeruginosa PA14 assessed as inhibition of visible growth of bacteria incubated for 20 hrs by broth microdilution method; assay type: functional
Escherichia coli = assay: Antimicrobial activity against Escherichia coli ATCC 25922 assessed as inhibition of visible growth of bacteria incubated for 20 hrs by broth microdilution method; assay type: functional

| Structure (SMILES) | MIC (Klebsiella pneumoniae) [µg/mL] | MIC (Enterococcus faecalis [1]) [µg/mL] | MIC (Pseudomonas aeruginosa [2]) [µg/mL] | MIC (Streptococcus agalactiae) [µg/mL] | MIC (Enterococcus faecium [3]) [µg/mL] | MIC (Enterococcus faecalis [5]) [µg/mL] | MIC (Staphylococcus aureus [6]) [µg/mL] | MIC (Enterococcus faecium [7]) [µg/mL] | MIC (Staphylococcus aureus [8]) [µg/mL] | MIC (Enterococcus faecalis [10]) [µg/mL] | MIC (Acinetobacter baumannii [11]) [µg/mL] | MIC (Acinetobacter baumannii [12]) [µg/mL] | MIC (Enterococcus faecalis [13]) [µg/mL] | MIC (Salmonella enteritidis) [µg/mL] | MIC (Enterococcus faecium [14]) [µg/mL] | MIC (Staphylococcus aureus [15]) [µg/mL] | MIC (Staphylococcus aureus [16]) [µg/mL] | MIC (Streptococcus suis [18]) [µg/mL] | MIC (Streptococcus pyogenes) [µg/mL] | MIC (Pseudomonas aeruginosa [19]) [µg/mL] | further results |
| --- | --- | --- | --- | --- | --- | --- | --- | --- | --- | --- | --- | --- | --- | --- | --- | --- | --- | --- | --- | --- | --- |
| CNC(C)[C@@H]1CC[C@@H](N)[C@@H](O[C@H]2[C@H](O)[C@@H](O[C@H]3OC[C@](C)(O)[C@H](NC)[C@H]3O)[C@H](N)C[C@@H]2N)O1.CN[C@@H]1[C@@H](O)[C@@H](O[C@@H]2[C@@H](O)[C@H](O[C@H]3O[C@H](C(C)N)CC[C@H]3N)[C@@H](N)C[C@H]2N)OC[C@]1(C)O.CN[C@@H]1[C@@H](O)[C@@H](O[C@@H]2[C@@H](O)[C@H](O[C@H]3O[C@H](CN)CC[C@H]3N)[C@@H](N)C[C@H]2N)OC[C@]1(C)O (stereo partly specified) | 0.5 | > 32 | 0.125 | 16 | < 0.06 | 8 | 0.5 | > 32 | 0.5 | 8 | > 32 | < 0.06 | 4 | 0.25 | > 32 | 0.5 | 1 | 4 | 1 | < 0.06 | MIC (Staphylococcus aureus [4]): > 32 µg/mL; MIC (Staphylococcus aureus [9]): 0.5 µg/mL; MIC (Streptococcus suis [17]): > 32 µg/mL |
| CC(C)CCCCC(=O)N[C@@H](CCN)C(=O)N[C@@H](CN[C@@H](CCN)C(=O)N[C@H]1CCNC(=O)[C@H]([C@@H](C)O)NC(=O)[C@H](CCN)NC(=O)[C@H](CCN)NC(=O)[C@H](CC(C)C)NC(=O)[C@@H](CC(C)C)NC(=O)[C@H](CCN)NC1=O)[C@@H](C)O.CCC(C)CCCCC(=O)N[C@@H](CCN)C(=O)N[C@@H](CN[C@@H](CCN)C(=O)N[C@H]1CCNC(=O)[C@H]([C@@H](C)O)NC(=O)[C@H](CCN)NC(=O)[C@H](CCN)NC(=O)[C@H](CC(C)C)NC(=O)[C@@H](CC(C)C)NC(=O)[C@H](CCN)NC1=O)[C@@H](C)O (stereo partly drawn) (H-[X1]([Dab-Octanoyl(6-Me)])[Dab][Dab][dL]L[Dab][Dab]T; lactam 2-C) | 0.5 |  | 0.125 |  |  |  |  |  |  |  | < 0.06 | 8 |  | 0.5 |  |  |  |  |  | < 0.06 | MIC (Escherichia coli): 1 µg/mL |
| CC1(C)S[C@@H]2[C@H](NC(=O)[C@H](N)c3ccccc3)C(=O)N2[C@H]1C(=O)O [AMPICILLIN] | > 32 | 16 (≈ 45.8 µM) | > 32 | 0.5 (≈ 1.43 µM) | 1 (≈ 2.86 µM) | > 32 | > 32 | 32 (≈ 91.6 µM) | 1 (≈ 2.86 µM) |  | > 32 | < 0.06 | 16 (≈ 45.8 µM) | 32 (≈ 91.6 µM) | 16 (≈ 45.8 µM) | 2 (≈ 5.72 µM) | 1 (≈ 2.86 µM) | ≤ 0.5 | 0.5 (≈ 1.43 µM) | > 32 |  |
| C[C@H]1[C@H](NC(=O)/C(=N\OC(C)(C)C(=O)O)c2csc(N)n2)C(=O)N1S(=O)(=O)O [AZTREONAM] | 2 (≈ 4.59 µM) |  | 2 (≈ 4.59 µM) |  |  |  |  |  |  |  | > 32 | > 32 |  | 2 (≈ 4.59 µM) |  |  |  |  |  | 4 (≈ 9.19 µM) | MIC (Escherichia coli): 0.25 µg/mL (≈ 0.574 µM) |
| CO[C@@]1(NC(=O)Cc2cccs2)C(=O)N2C(C(=O)O)=C(COC(N)=O)CS[C@@H]21 [CEFOXITIN] | > 32 | > 32 | > 32 | 16 (≈ 37.4 µM) | 8 (≈ 18.7 µM) | > 32 | 32 (≈ 74.9 µM) | > 32 | 4 (≈ 9.36 µM) | > 32 | > 32 | 16 (≈ 37.4 µM) | > 32 | 32 (≈ 74.9 µM) | > 32 | 2 (≈ 4.68 µM) | 1 (≈ 2.34 µM) | 1 (≈ 2.34 µM) | 1 (≈ 2.34 µM) | > 32 | MIC (Escherichia coli): 0.25 µg/mL (≈ 0.585 µM); MIC (Staphylococcus aureus [4]): 4 µg/mL (≈ 9.36 µM); MIC (Staphylococcus aureus [9]): 4 µg/mL (≈ 9.36 µM); MIC (Streptococcus suis [17]): 8 µg/mL (≈ 18.7 µM) |
| O=C(O)c1cn(C2CC2)c2cc(N3CCNCC3)c(F)cc2c1=O [CIPROFLOXACIN] |  | > 32 |  | 16 (≈ 48.3 µM) | 1 (≈ 3.02 µM) | 0.5 (≈ 1.51 µM) | 4 (≈ 12.1 µM) | 8 (≈ 24.1 µM) | 0.5 (≈ 1.51 µM) | 16 (≈ 48.3 µM) |  |  | 0.5 (≈ 1.51 µM) |  | 2 (≈ 6.04 µM) | 0.25 (≈ 0.754 µM) | 1 (≈ 3.02 µM) | 0.125 (≈ 0.377 µM) | 1 (≈ 3.02 µM) |  | MIC (Streptococcus suis [17]): 16 µg/mL (≈ 48.3 µM) |
| CC[C@H]1OC(=O)[C@H](C)[C@@H](O[C@H]2C[C@@](C)(OC)[C@@H](O)[C@H](C)O2)[C@H](C)[C@@H](O[C@@H]2O[C@H](C)C[C@H](N(C)C)[C@H]2O)[C@](C)(O)C[C@@H](C)C(=O)[C@H](C)[C@@H](O)[C@]1(C)O [ERYTHROMYCIN] |  | > 32 |  | > 32 | 2 (≈ 2.73 µM) | > 32 | > 32 | > 32 | > 32 | > 32 |  |  | 0.25 (≈ 0.341 µM) |  | > 32 | > 32 | 1 (≈ 1.36 µM) | 0.125 (≈ 0.17 µM) | > 32 |  | MIC (Staphylococcus aureus [4]): > 32 µg/mL; MIC (Staphylococcus aureus [9]): > 32 µg/mL; MIC (Streptococcus suis [17]): > 32 µg/mL |
| C[C@H]1COc2c(N3CCN(C)CC3)c(F)cc3c(=O)c(C(=O)O)cn1c23 [LEVOFLOXACIN ANHYDROUS] | > 32 |  | 0.5 (≈ 1.38 µM) |  |  |  |  |  |  |  | > 32 | 0.125 (≈ 0.346 µM) |  | 0.5 (≈ 1.38 µM) |  |  |  |  |  | 0.125 (≈ 0.346 µM) | MIC (Escherichia coli): 0.125 µg/mL (≈ 0.346 µM) |
| C[C@@H](O)[C@H]1C(=O)N2C(C(=O)O)=C(S[C@@H]3CN[C@H](C(=O)N(C)C)C3)[C@H](C)[C@H]12 [MEROPENEM] | 4 (≈ 10.4 µM) |  | 0.5 (≈ 1.3 µM) |  |  |  |  |  |  |  | > 32 | < 0.06 |  | 0.25 (≈ 0.652 µM) |  |  |  |  |  | 0.5 (≈ 1.3 µM) | MIC (Escherichia coli): 0.25 µg/mL (≈ 0.652 µM) |
| CN[C@H](CC(C)C)C(=O)N[C@H]1C(=O)N[C@@H](CC(N)=O)C(=O)N[C@H]2C(=O)N[C@H]3C(=O)N[C@H](C(=O)N[C@H](C(=O)O)c4cc(O)cc(O)c4-c4cc3ccc4O)[C@H](O)c3ccc(c(Cl)c3)Oc3cc2cc(c3O[C@@H]2O[C@H](CO)[C@@H](O)[C@H](O)[C@H]2O[C@H]2C[C@](C)(N)[C@H](O)[C@H](C)O2)Oc2ccc(cc2Cl)[C@H]1O [VANCOMYCIN] |  | 16 (≈ 11 µM) |  | 0.125 (≈ 0.0863 µM) |  | 2 (≈ 1.38 µM) | < 0.06 |  |  | 2 (≈ 1.38 µM) |  |  | 2 (≈ 1.38 µM) |  |  | 16 (≈ 11 µM) |  | < 0.06 | < 0.06 |  | MIC (Streptococcus suis [17]): < 0.06 µg/mL |
